Drawing on article PMC5458547, “Discovery of first-in-class reversible dual small molecule inhibitors against G9a and DNMTs in hematological malignancies” (Nature Communications, 2017), this text covers survival, remaining binding and Kd for one compound.

In one test the test system is CEMO-1 cells. Description: ALL CEMO-1 xenograft survival. Particulars: 1 mg/kg i.v. daily for 28 days. In kind it is in vivo, mice. The procedure:
Statistical results were calculated using the statistical software medcalc.
270 nM for MV4-11 cell line and 200 and 400 nM for OCI-Ly10). Extracellular HMGB1 from 48 h cell culture supernatants was quantified by means of the HMGB1 ELISA Kit II (Shino Test Corp.), following the manufacturer's instructions.
All animal studies had previous approval from the Animal Care and Ethics Committee of the University of Navarra, whereas experiments that used patient samples were approved by the Human Research Ethics Committees of University of Navarra.
The human ALL CEMO-1 xenograft mice model was generated by intravenously (i.v.) injection of 10x10^6 cells diluted in 100 µL of saline solution in the tail vein of a 6-8-week-old female BALB/cA- Rag2-/-γc-/- mice (n=12). Three days after injection, antitumor treatment was started intravenously in 6 mice. 1 mg/kg […]
The control group (n=6) received only
The mice weight was controlled and stable during the treatment.
Statistical results were calculated using the statistical software medcalc. […]
consecutive days. […] Statistical results were calculated using the statistical software medcalc. […]
The control group (n=6) received only saline solution. […] Statistical results were calculated using the statistical software medcalc. […]
washout period, hematological and liver parameters were measured. […]
washout period hematological and liver parameters were measured. […]

The target in test [1] is T1, ABL1(T315I)-phosphorylated (Homo sapiens, UniProt P00519, T315I).
T1 construct: purchased DiscoverX KINOMEscan (kinases); BPS Bioscience (epigenetic targets)
Put plainly: KINOMEscan kinase profiling. In kind it is binding. As to conditions: read-out: Percent Control. The protocol: (§1) Kinase Selectivity Profiling
(§2) (out of which 90 are non-mutant kinases) was performed at DiscoverRx (http://www.discoverx.com/home) using the KINOMEscan™ screening platform at a test concentration of 10 µM. Results for primary screen […]
(§3) positive control signal) / (negative control signal – positive control signal) *100, where negative control corresponds to DMSO treatment (100%) and positive control to the signal obtained with a control competitive compound (0%). […]
(§4) using the Hill equation. Each target was assayed in duplicate. […]

The target in another test is T2, AURKB (Homo sapiens, UniProt Q96GD4).
T2 construct: purchased DiscoverX KINOMEscan (kinases); BPS Bioscience (epigenetic targets)
Put plainly: KINOMEscan kinase profiling. In kind it is binding. As to conditions: read-out: Percent Control. The protocol:
as §1, §2, §3, §4

The next test has as its target T3, BRAF(V600E) (Homo sapiens, UniProt P15056, V600E).
T3 construct: purchased DiscoverX KINOMEscan (kinases); BPS Bioscience (epigenetic targets)
Description: KINOMEscan kinase profiling. It counts as binding. Particulars: read-out: Percent Control. The protocol:
as §1, §2, §3, §4

The target in the next test is T4, BTK (Homo sapiens, UniProt Q06187).
T4 construct: purchased DiscoverRx (KINOMEscan contract screen)
Description: KINOMEscan kinase profiling. In kind it is binding. The protocol:
as §1, §2, §3, §4

The target of a further test is T5, CDK7 (Homo sapiens, UniProt P50613).
T5 construct: purchased DiscoverX KINOMEscan (kinases); BPS Bioscience (epigenetic targets)
Description: KINOMEscan kinase profiling. In kind it is binding. As to conditions: read-out: Percent Control. The protocol:
as §1, §2, §3, §4

A further test addresses T6, DCAMKL1 (Homo sapiens, UniProt O15075).
T6 construct: purchased DiscoverX KINOMEscan (kinases); BPS Bioscience (epigenetic targets)
Put plainly: KINOMEscan kinase profiling. In kind it is binding. As to conditions: read-out: Percent Control. The protocol: as §1, §2, §3, §4

A further test concerns the target T7, EGFR (Homo sapiens, UniProt P00533).
T7 construct: purchased DiscoverX KINOMEscan (kinases); BPS Bioscience (epigenetic targets)
Put plainly: KINOMEscan kinase profiling. It counts as binding. As to conditions: read-out: Percent Control. The procedure:
as §1, §2, §3, §4

The next test concerns the target T8, ERBB4 (Homo sapiens, UniProt Q15303).
T8 construct: purchased DiscoverX KINOMEscan (kinases); BPS Bioscience (epigenetic targets)
Description: KINOMEscan kinase profiling. In kind it is binding. Particulars: read-out: Percent Control. The procedure: as §1, §2, §3, §4

Another test concerns the target T9, ERK1 (Homo sapiens, UniProt P27361).
T9 construct: purchased DiscoverX KINOMEscan (kinases); BPS Bioscience (epigenetic targets)
Put plainly: KINOMEscan kinase profiling. In kind it is binding. Particulars: read-out: Percent Control. The procedure:
as §1, §2, §3, §4

The target in test [2] is T10, JAK3(JH1domain-catalytic) (Homo sapiens, UniProt P52333).
T10 construct: JAK3(JH1domain-catalytic); purchased DiscoverRx (DiscoverX), KINOMEscan screening platform
Put plainly: KINOMEscan kinase profiling. In kind it is binding. The procedure: as §1, §2, §3, §4

The next test concerns the target T11, JNK1 (Homo sapiens, UniProt P45983).
T11 construct: purchased DiscoverX KINOMEscan (kinases); BPS Bioscience (epigenetic targets)
Description: KINOMEscan kinase profiling. In kind it is binding. Particulars: read-out: Percent Control. The procedure: as §1, §2, §3, §4

The target of the next test is T12, KIT (Homo sapiens, UniProt P10721).
T12 construct: purchased DiscoverX KINOMEscan (kinases); BPS Bioscience (epigenetic targets)
Put plainly: KINOMEscan kinase profiling. It counts as binding. Particulars: read-out: Percent Control. The procedure:
as §1, §2, §3, §4

A further test concerns the target T13, MEK1 (Homo sapiens, UniProt Q02750).
T13 construct: purchased DiscoverX KINOMEscan (kinases); BPS Bioscience (epigenetic targets)
Description: KINOMEscan kinase profiling. In kind it is binding. As to conditions: read-out: Percent Control. The protocol: as §1, §2, §3, §4

In another test the target is T14, PAK4 (Homo sapiens, UniProt O96013).
T14 construct: purchased DiscoverX KINOMEscan (kinases); BPS Bioscience (epigenetic targets)
Description: KINOMEscan kinase profiling. In kind it is binding. Particulars: read-out: Percent Control. The protocol: as §1, §2, §3, §4

Another test concerns the target T15, PIK3CA (Homo sapiens, UniProt P42336).
T15 construct: purchased DiscoverX KINOMEscan (kinases); BPS Bioscience (epigenetic targets)
Description: KINOMEscan kinase profiling. In kind it is binding. Particulars: read-out: Percent Control. The protocol:
as §1, §2, §3, §4

For the next test, the target named is T16, PIM2 (Homo sapiens, UniProt Q9P1W9).
T16 construct: purchased DiscoverX KINOMEscan (kinases); BPS Bioscience (epigenetic targets)
Description: KINOMEscan kinase profiling. Particulars: read-out: Percent Control. It counts as binding. The procedure: as §1, §2, §3, §4

The target of a further test is T17, PLK4 (Homo sapiens, UniProt O00444).
T17 construct: purchased DiscoverX KINOMEscan (kinases); BPS Bioscience (epigenetic targets)
Description: KINOMEscan kinase profiling. It counts as binding. As to conditions: read-out: Percent Control. The protocol:
as §1, §2, §3, §4

Test [3] concerns the target T18, RSK2(Kin.Dom.1-N-terminal) (Homo sapiens, UniProt P51812).
T18 construct: RSK2(Kin.Dom.1-N-terminal); purchased DiscoverX KINOMEscan (kinases); BPS Bioscience (epigenetic targets)
Put plainly: KINOMEscan kinase profiling. In kind it is binding. As to conditions: read-out: Percent Control. The procedure: as §1, §2, §3, §4

The next test has as its target T19, TSSK1B (Homo sapiens, UniProt Q9BXA7).
T19 construct: purchased DiscoverX KINOMEscan (kinases); BPS Bioscience (epigenetic targets)
Put plainly: KINOMEscan kinase profiling. In kind it is binding. Particulars: read-out: Percent Control. The protocol: as §1, §2, §3, §4

The next test has as its target T20, p38-beta (Homo sapiens, UniProt Q15759).
T20 construct: purchased DiscoverX KINOMEscan (kinases); BPS Bioscience (epigenetic targets)
Put plainly: KINOMEscan kinase profiling. In kind it is binding. As to conditions: read-out: Percent Control. The procedure: as §1, §2, §3, §4

[4] abbreviates: 10 µM, read-out: Percent Control.

T10 sequence (P52333 822-1111 limits assumed): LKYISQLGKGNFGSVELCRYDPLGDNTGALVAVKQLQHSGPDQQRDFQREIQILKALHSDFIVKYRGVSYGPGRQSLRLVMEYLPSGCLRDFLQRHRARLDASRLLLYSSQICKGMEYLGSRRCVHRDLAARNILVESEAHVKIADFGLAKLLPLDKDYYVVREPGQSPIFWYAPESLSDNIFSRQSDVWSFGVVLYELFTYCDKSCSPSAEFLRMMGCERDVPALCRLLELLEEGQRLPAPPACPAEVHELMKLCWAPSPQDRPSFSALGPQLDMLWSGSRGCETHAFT
T4 sequence (Q06187 whole entry): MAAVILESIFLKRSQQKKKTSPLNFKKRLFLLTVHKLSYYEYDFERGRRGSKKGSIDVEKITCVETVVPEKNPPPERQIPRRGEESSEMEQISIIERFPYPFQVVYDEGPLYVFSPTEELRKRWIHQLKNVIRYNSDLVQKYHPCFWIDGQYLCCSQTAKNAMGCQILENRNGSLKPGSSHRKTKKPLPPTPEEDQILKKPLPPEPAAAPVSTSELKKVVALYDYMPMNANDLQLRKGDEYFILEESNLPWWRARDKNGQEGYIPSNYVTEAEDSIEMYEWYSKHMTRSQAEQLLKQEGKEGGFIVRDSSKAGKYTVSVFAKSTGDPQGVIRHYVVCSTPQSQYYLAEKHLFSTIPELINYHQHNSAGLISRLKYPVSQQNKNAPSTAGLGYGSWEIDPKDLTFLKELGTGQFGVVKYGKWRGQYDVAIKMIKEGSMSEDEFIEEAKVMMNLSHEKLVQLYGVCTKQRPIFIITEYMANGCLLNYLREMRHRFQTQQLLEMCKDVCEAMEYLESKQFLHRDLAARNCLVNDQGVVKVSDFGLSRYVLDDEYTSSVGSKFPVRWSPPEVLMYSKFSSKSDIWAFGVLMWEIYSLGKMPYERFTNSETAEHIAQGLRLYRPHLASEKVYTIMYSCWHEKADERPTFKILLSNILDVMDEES
T17 sequence (O00444 whole entry): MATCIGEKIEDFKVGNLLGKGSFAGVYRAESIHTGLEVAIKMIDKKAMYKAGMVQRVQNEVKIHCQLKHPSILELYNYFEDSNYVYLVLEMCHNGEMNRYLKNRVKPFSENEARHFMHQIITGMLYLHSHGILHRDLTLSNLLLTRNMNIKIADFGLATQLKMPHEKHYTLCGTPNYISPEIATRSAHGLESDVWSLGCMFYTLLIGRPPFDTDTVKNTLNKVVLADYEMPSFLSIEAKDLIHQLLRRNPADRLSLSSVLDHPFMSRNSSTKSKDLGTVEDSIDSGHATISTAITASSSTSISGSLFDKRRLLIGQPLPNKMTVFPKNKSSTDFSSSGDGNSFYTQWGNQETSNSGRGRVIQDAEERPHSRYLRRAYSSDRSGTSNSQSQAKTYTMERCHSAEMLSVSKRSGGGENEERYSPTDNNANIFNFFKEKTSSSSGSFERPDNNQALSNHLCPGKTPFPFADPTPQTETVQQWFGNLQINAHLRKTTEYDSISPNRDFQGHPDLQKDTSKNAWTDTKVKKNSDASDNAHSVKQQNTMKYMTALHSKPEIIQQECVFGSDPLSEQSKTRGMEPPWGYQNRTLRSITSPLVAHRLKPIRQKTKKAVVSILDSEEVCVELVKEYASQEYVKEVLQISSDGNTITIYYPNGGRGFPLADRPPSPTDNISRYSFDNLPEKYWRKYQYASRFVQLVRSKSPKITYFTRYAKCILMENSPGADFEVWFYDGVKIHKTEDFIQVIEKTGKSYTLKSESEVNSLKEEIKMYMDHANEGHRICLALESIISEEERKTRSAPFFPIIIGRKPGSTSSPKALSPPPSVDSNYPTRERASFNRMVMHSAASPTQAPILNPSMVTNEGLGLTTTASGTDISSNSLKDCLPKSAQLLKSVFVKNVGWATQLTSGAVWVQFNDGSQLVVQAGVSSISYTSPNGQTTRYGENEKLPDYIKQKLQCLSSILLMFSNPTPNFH
T8 sequence (Q15303 26-1308): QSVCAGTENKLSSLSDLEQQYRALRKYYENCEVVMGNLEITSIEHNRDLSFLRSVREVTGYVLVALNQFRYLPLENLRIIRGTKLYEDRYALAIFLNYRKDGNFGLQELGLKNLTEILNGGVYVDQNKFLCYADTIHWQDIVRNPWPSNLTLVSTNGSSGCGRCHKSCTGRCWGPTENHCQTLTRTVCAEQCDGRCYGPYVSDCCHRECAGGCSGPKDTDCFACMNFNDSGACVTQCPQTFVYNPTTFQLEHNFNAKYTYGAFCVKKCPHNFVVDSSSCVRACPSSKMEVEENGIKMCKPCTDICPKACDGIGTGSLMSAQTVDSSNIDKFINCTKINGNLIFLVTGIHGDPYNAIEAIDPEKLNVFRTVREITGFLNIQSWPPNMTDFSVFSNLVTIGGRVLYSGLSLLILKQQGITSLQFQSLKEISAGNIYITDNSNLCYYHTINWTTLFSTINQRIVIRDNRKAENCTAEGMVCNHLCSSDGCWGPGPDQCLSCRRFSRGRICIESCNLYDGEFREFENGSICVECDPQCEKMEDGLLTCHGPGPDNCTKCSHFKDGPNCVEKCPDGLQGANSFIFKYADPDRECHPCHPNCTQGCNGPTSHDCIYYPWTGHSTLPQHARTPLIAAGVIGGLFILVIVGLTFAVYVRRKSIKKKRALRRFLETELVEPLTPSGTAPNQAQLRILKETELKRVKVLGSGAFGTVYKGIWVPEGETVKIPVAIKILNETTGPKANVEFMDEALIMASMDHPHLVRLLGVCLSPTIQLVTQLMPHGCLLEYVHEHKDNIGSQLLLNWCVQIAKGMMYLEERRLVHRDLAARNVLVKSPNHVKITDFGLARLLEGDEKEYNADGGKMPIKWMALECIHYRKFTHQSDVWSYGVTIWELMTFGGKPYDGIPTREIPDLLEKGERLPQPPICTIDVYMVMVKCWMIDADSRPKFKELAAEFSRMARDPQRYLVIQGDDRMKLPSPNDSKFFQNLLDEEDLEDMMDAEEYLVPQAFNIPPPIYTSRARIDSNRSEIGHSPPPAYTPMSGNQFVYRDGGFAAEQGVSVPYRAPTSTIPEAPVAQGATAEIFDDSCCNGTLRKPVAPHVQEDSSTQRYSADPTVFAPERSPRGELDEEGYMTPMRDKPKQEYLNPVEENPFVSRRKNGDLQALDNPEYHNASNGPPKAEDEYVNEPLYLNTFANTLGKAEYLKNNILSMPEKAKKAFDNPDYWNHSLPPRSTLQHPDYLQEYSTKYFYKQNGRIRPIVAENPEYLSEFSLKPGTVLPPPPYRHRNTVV
T16 sequence (Q9P1W9 whole entry): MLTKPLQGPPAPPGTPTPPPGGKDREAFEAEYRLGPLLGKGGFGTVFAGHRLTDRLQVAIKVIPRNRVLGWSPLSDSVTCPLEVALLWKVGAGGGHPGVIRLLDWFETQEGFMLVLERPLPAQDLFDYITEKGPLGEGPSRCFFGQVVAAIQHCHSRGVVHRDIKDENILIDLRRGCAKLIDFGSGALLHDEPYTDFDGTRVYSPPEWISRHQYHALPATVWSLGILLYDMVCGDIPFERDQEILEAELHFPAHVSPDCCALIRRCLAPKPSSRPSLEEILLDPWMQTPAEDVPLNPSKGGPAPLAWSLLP
T18 sequence (P51812 1-397 limits assumed): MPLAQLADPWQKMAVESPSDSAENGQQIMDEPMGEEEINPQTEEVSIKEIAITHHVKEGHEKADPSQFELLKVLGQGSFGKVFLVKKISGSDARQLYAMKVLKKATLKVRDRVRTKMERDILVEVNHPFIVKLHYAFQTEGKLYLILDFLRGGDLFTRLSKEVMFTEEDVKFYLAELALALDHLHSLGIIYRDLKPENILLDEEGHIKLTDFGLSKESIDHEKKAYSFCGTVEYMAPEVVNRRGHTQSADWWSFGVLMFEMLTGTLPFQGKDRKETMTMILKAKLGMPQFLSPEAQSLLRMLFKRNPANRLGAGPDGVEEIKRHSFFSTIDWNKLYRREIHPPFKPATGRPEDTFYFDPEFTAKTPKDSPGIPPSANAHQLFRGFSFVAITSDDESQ
T20 sequence (Q15759 whole entry): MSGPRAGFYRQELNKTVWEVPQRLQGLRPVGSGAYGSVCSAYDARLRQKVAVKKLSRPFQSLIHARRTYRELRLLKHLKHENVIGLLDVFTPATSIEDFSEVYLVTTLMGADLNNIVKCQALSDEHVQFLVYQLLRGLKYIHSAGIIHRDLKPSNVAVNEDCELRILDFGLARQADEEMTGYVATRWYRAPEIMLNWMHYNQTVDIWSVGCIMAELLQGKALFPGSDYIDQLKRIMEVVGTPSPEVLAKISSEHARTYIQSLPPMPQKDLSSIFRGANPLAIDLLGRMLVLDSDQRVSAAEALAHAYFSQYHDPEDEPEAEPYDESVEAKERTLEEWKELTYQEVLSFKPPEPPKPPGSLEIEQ
T5 sequence (P50613 whole entry): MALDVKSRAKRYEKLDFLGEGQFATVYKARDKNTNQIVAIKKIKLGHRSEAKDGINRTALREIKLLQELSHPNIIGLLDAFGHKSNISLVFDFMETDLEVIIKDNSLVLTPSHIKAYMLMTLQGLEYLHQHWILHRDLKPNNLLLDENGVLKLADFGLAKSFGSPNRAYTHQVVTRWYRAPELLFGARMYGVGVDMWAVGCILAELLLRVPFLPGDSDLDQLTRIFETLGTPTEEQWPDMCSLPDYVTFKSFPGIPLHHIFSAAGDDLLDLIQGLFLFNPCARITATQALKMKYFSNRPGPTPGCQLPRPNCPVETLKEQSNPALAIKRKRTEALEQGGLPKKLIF
T19 sequence (Q9BXA7 whole entry): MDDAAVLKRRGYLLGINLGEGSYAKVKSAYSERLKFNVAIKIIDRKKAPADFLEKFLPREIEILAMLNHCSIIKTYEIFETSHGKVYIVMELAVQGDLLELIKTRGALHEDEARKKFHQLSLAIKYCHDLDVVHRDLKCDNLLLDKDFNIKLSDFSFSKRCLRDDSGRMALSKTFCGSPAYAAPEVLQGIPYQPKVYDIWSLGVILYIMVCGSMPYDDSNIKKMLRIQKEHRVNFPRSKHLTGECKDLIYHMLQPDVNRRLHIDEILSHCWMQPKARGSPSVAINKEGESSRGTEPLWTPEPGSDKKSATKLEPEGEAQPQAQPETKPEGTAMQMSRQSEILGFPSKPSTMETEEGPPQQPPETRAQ

As a reminder, the Kd is the free concentration of one partner at which half of the binding sites on the other are occupied at equilibrium, for simple one-to-one binding. Consider `COc1cc2c(NC3CCN(C)CC3)cc(-c3ccc(C)o3)nc2cc1OCCCN1CCCC1` [CM-272, 6-methoxy-2-(5-methyl-2-furyl)-N-(1-methyl-4-piperidyl)-7-(3-pyrrolidin-1-ylpropoxy)quinolin-4-amine], for which the survival entry in the test with CEMO-1 cells is reported as “not able to prolong survival”. Further, the remaining binding at 10 µM was 25% in [1]; 61% at AURKB; 27% at BRAF(V600E); 0.5% on BTK (setting [4]); 53% on CDK7; 22% at DCAMKL1. In addition, the remaining binding at 10 µM is 100% on EGFR; 97% at ERBB4; 100% at ERK1; 0% in test [2] (setting [4]); 25% at JNK1; 100% at KIT. The remaining binding at 10 µM on MEK1 came to 45%; at PAK4, 100%; at PIK3CA it was 40%; on PIM2, 93%; on PLK4, 80%; in [3], 46%. Moreover, the remaining binding at 10 µM at TSSK1B turned out to be 100%; at p38-beta it was 92%. The Kd amounted to 1100 nM on BTK (KINOMEscan) and 1800 nM in [2] (KINOMEscan).
